Measured values as given in ChEMBL document CHEMBL1201862, “PubChem BioAssay data set” (2004).
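Dose response: 5 concentrations. Exposure: 48 h. Format: 96-well plates. Endpoint: linear interpolation; highest concentration if not reached. GI50: concentration for 50% inhibition of growth.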 Active and inactive are the calls of the source. No stated cut-off is given here; in the data, active = GI50 up to about 1.1 µM and inactive = higher.

Assays:
Assay in all cases: growth of human tumour cells (NCI), 48 h
K562 = tested on: K562
ACHN = tested on: ACHN
786-0 = tested on: 786-0
SF-295 = tested on: SF-295
OVCAR-5 = tested on: OVCAR-5
OVCAR-3 = tested on: OVCAR-3
RXF 393 = tested on: RXF 393
HOP-92 = tested on: HOP-92
A549 = tested on: A549
MDA-N = tested on: MDA-N
CAKI-1 = tested on: CAKI-1
Malme-3M = tested on: Malme-3M
SK-MEL-2 = tested on: SK-MEL-2
SK-MEL-5 = tested on: SK-MEL-5
DU-145 = tested on: DU-145
SR = tested on: SR
HL-60 = tested on: HL-60
NCI/ADR-RES = tested on: NCI/ADR-RES
TK-10 = tested on: TK-10
T47D = tested on: T47D
HCT-116 = tested on: HCT-116
U-251 = tested on: U-251
COLO 205 = tested on: COLO 205
PC-3 = tested on: PC-3
MOLT-4 = tested on: MOLT-4
RPMI-8226 = tested on: RPMI-8226
SF-268 = tested on: SF-268
BT-549 = tested on: BT-549
UACC-62 = tested on: UACC-62
EKVX = tested on: EKVX
OVCAR-8 = tested on: OVCAR-8
HCC 2998 = tested on: HCC 2998
MDA-MB-435 = tested on: MDA-MB-435
SN12C = tested on: SN12C
CCRF-CEM = tested on: CCRF-CEM
SF-539 = tested on: SF-539
HT-29 = tested on: HT-29
HCT-15 = tested on: HCT-15
MCF7 = tested on: MCF7
OVCAR-4 = tested on: OVCAR-4
NCI-H460 = tested on: NCI-H460
KM12 = tested on: KM12
M14 = tested on: M14
SK-MEL-28 = tested on: SK-MEL-28
UO-31 = tested on: UO-31
NCI-H226 = tested on: NCI-H226
IGROV-1 = tested on: IGROV-1
HOP-62 = tested on: HOP-62
MDA-MB-231 = tested on: MDA-MB-231
SK-OV-3 = tested on: SK-OV-3
A498 = tested on: A498
NCI-H23 = tested on: NCI-H23
NCI-H522 = tested on: NCI-H522
SNB-19 = tested on: SNB-19
SNB-75 = tested on: SNB-75
SW-620 = tested on: SW-620
LOX IMVI = tested on: LOX IMVI
UACC-257 = tested on: UACC-257
Hs-578T = tested on: Hs-578T

Measured: GI50

Cn1c(=O)c2[nH]c(-n3nc(-c4ccccc4)cc3N)nc2n(C)c1=O
0.8 µM: HCT-15
inactive: K562 6.46 µM | ACHN 3.66 µM | 786-0 6.18 µM | SF-295 4.92 µM | OVCAR-5 21.3 µM | OVCAR-3 5.35 µM | RXF 393 26.8 µM | HOP-92 6.46 µM | A549 5.78 µM | MDA-N 11.7 µM | CAKI-1 2.12 µM | Malme-3M 13.7 µM | SK-MEL-2 14.6 µM | SK-MEL-5 5.38 µM | DU-145 7.93 µM | SR 4.31 µM | HL-60 12 µM | NCI/ADR-RES 2.4 µM | TK-10 12.4 µM | T47D 11.3 µM | HCT-116 6.49 µM | U-251 6.78 µM | COLO 205 7.05 µM | PC-3 19.7 µM | MOLT-4 7.14 µM | RPMI-8226 12.6 µM | SF-268 11.3 µM | BT-549 14.5 µM | UACC-62 6.37 µM | EKVX 5.42 µM | OVCAR-8 4.85 µM | HCC 2998 8.67 µM | MDA-MB-435 18 µM | SN12C 4.6 µM | CCRF-CEM 2.64 µM | SF-539 5.08 µM | HT-29 4.15 µM | MCF7 13.8 µM | OVCAR-4 2.91 µM | NCI-H460 3.3 µM | KM12 6.58 µM | M14 10.5 µM | SK-MEL-28 11 µM | UO-31 6.89 µM | NCI-H226 5.55 µM | IGROV-1 1.34 µM | HOP-62 12.5 µM | MDA-MB-231 10.6 µM | SK-OV-3 4.04 µM | A498 11.1 µM

COc1cc(C2c3cc4c(cc3OC(NCc3ccccc3)C2C)OCO4)cc(OC)c1OC (centres undefined)
0.543 µM: HCT-15
active: K562 0.305 µM | ACHN 1.01 µM | 786-0 0.357 µM | SF-295 0.219 µM | OVCAR-5 1.09 µM | OVCAR-3 0.298 µM | RXF 393 0.206 µM | A549 0.631 µM | MDA-N 0.0973 µM | CAKI-1 0.288 µM | Malme-3M 0.254 µM | SK-MEL-2 0.675 µM | SK-MEL-5 0.261 µM | DU-145 0.406 µM | SR 0.241 µM | HL-60 0.277 µM | NCI-H23 0.417 µM | NCI/ADR-RES 0.258 µM | HCT-116 0.364 µM | U-251 0.39 µM | NCI-H522 0.339 µM | COLO 205 0.252 µM | PC-3 0.24 µM | MOLT-4 0.653 µM | RPMI-8226 0.381 µM | SF-268 0.933 µM | BT-549 0.631 µM | UACC-62 0.409 µM | SNB-19 0.452 µM | OVCAR-8 0.482 µM | SNB-75 0.177 µM | HCC 2998 0.687 µM | MDA-MB-435 0.102 µM | SN12C 0.697 µM | SW-620 0.331 µM | CCRF-CEM 0.39 µM | SF-539 0.273 µM | LOX IMVI 0.551 µM | HT-29 0.337 µM | MCF7 0.439 µM | OVCAR-4 0.644 µM | NCI-H460 0.394 µM | KM12 0.377 µM | M14 0.442 µM | UO-31 0.504 µM | NCI-H226 0.853 µM | IGROV-1 0.448 µM | HOP-62 0.553 µM | MDA-MB-231 0.303 µM | SK-OV-3 0.476 µM | A498 0.667 µM | Hs-578T 0.279 µM
inactive: HOP-92 2 µM | TK-10 20.2 µM | EKVX 2.56 µM | SK-MEL-28 4.04 µM | UACC-257 6.92 µM
